Legend:
MHC-II DRB1*15:03 [1] = target: T1, MHC-II DRB1*15:03 (Homo sapiens, UniProt P01903+P01911, Y59H); test: Cell-free REVEAL class II binding assay; details: signal of test peptide as percentage of allele-specific positive control peptide, fluorescence, conformation-specific monoclonal antibody
T1 construct: purchased ProImmune
Method in brief: (§1)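 Peptide binding to MHC-II alleles was detected by a fluorescent monoclonal antibody recognising natively folded peptide–MHC complexes. Scores are signal as a percentage of an allele-specific positive control T-cell epitope peptide. An intermediate-affinity control peptide was included in each run.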

MHC-II DRB1*03:01 [2] = target: T2, MHC-II DRB1*03:01 (Homo sapiens, UniProt P01903+P01911, A100K/A102G/A103R/A169T/F55Y/I96L/K41T/L162R/M171V/P40S/Q125H/Q178H/Q39Y/R42S/S66N/T106N/T262R/W38E/Y61H); test: Cell-free REVEAL class II binding assay; details: signal of test peptide as percentage of allele-specific positive control peptide, fluorescence, conformation-specific monoclonal antibody
Method in brief: as §1

MHC-II DRB1*07:01 [3] = target: T3, MHC-II DRB1*07:01 (Homo sapiens, UniProt P01903+P01911, A100R/A102G/A103Q/D57E/D86V/E43K/F76Y/K127E/L162R/M171V/P40G/Q125H/Q99D/R33Q/R42Y/R54Q/S133A/S66F/T210M/V115G/Y107V/Y59L/Y89S); test: Cell-free REVEAL class II binding assay; details: signal of test peptide as percentage of allele-specific positive control peptide, fluorescence, conformation-specific monoclonal antibody
Method in brief: as §1

MHC-II DRB1*11:01 [4] = target: T4, MHC-II DRB1*11:01 (Homo sapiens, UniProt P01903+P01911, A100R/A169T/A87E/I96F/K41T/L162R/M171V/P40S/Q125H/Q178H/Q39Y/Q99D/R42S/S66Y/T262R/V115G/W38E); test: Cell-free REVEAL class II binding assay; details: signal of test peptide as percentage of allele-specific positive control peptide, fluorescence, conformation-specific monoclonal antibody
Method in brief: as §1

MHC-II DRB1*15:01 [5] = target: T5, MHC-II DRB1*15:01 (Homo sapiens, UniProt P01903+P01911); test: Cell-free REVEAL class II binding assay; details: signal of test peptide as percentage of allele-specific positive control peptide, fluorescence, conformation-specific monoclonal antibody
T5 construct: purchased ProImmune
Method in brief: as §1

MHC-II DRB1*04:01 [6] = target: T6, MHC-II DRB1*04:01 (Homo sapiens, UniProt P01903+P01911, A100K/A169T/F76Y/I96L/K127E/L162R/M171V/N62H/P40V/Q125Y/R42H/S133A/S149N/S66Y/V115G/V209L/W38E); test: Cell-free REVEAL class II binding assay; details: signal of test peptide as percentage of allele-specific positive control peptide, fluorescence, conformation-specific monoclonal antibody
Method in brief: as §1

MHC-II DRB1*15:03 [7] = target: T1, MHC-II DRB1*15:03; test: Cell-free REVEAL class II stability assay; details: half-life of peptide-MHC-II complex (h, capped at 120) x Binding Score / 100, conformational ELISA
Method in brief: (§2)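 Complexes assemble over 96 hr at 10°C; samples are snap-frozen, then probed by anti-HLA conformational ELISA. Dissociation is sampled the same way. Fitted k yields t1/2, normalized via Binding Score.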

MHC-II DRB1*03:01 [8] = target: T2, MHC-II DRB1*03:01; test: Cell-free REVEAL class II stability assay; details: half-life of peptide-MHC-II complex (h, capped at 120) x Binding Score / 100, conformational ELISA
Method in brief: as §2

MHC-II DRB1*07:01 [9] = target: T3, MHC-II DRB1*07:01; test: Cell-free REVEAL class II stability assay; details: half-life of peptide-MHC-II complex (h, capped at 120) x Binding Score / 100, conformational ELISA
Method in brief: as §2

MHC-II DRB1*11:01 [10] = target: T4, MHC-II DRB1*11:01; test: Cell-free REVEAL class II stability assay; details: half-life of peptide-MHC-II complex (h, capped at 120) x Binding Score / 100, conformational ELISA
Method in brief: as §2

MHC-II DRB1*15:01 [11] = target: T5, MHC-II DRB1*15:01; test: Cell-free REVEAL class II stability assay; details: half-life of peptide-MHC-II complex (h, capped at 120) x Binding Score / 100, conformational ELISA
Method in brief: as §2

MHC-II DRB1*04:01 [12] = target: T6, MHC-II DRB1*04:01; test: Cell-free REVEAL class II stability assay; details: half-life of peptide-MHC-II complex (h, capped at 120) x Binding Score / 100, conformational ELISA
Method in brief: as §2

T2 sequence (P01903 26-254 limits assumed, other chains not shown): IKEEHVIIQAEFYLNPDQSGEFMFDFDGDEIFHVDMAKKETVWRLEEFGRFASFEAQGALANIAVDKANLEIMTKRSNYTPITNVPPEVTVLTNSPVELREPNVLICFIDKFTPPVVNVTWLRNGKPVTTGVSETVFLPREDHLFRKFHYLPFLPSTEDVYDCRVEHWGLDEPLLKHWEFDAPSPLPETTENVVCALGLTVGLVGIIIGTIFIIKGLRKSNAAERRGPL
T1 sequence (P01903 26-254, other chains not shown): as the sequence (P01903 26-254 limits assumed, other chains not shown) above
T4 sequence (P01903 26-254 limits assumed, other chains not shown): as above

| Sequence | Binding Score (MHC-II DRB1*15:03 [1]) | Binding Score (MHC-II DRB1*03:01 [2]) | Binding Score (MHC-II DRB1*07:01 [3]) | Binding Score (MHC-II DRB1*11:01 [4]) | Binding Score (MHC-II DRB1*15:01 [5]) | Binding Score (MHC-II DRB1*04:01 [6]) | Stability Index (MHC-II DRB1*15:03 [7]) | Stability Index (MHC-II DRB1*03:01 [8]) | Stability Index (MHC-II DRB1*07:01 [9]) | Stability Index (MHC-II DRB1*11:01 [10]) | Stability Index (MHC-II DRB1*15:01 [11]) | Stability Index (MHC-II DRB1*04:01 [12]) |
| --- | --- | --- | --- | --- | --- | --- | --- | --- | --- | --- | --- | --- |
| PPLLTRYLRIHPQSW [synthetic wild type FVIII 15 mer peptide] | 21.7% | 0.0% | 7.0% | 42.2% | 403.3% | 9.6% | 26.0 | 0.0 | 8.4 | 5.9 | 483.9 | 0.9 |
| PQVNNPKEWLQVDFQ [synthetic wild type FVIII 15 mer peptide] | 0.0% | 0.0% | 0.0% | 0.1% | 0.1% | 0.0% | 0.0 | 0.0 | 0.0 | 0.0 | 0.2 | 0.0 |
| PRCLTRYYSSFVNME [synthetic wild type FVIII 15 mer peptide] | 72.3% | 0.9% | 0.0% | 20.5% | 336.9% | 9.6% | 86.8 | 0.1 | 0.0 | 1.2 | 404.2 | 0.7 |
| PWFAHRTPMPKIQNV [synthetic wild type FVIII 15 mer peptide, region of ns-SNP R776G] | 0.2% | 0.1% | 2.7% | 4.9% | 4.7% | 6.4% | 0.0 | 0.1 | 3.2 | 0.5 | 0.4 | 0.8 |
| QKFSSLYISQFIIMY [synthetic wild type FVIII 15 mer peptide] | 0.0% | 0.5% | 0.0% | 0.4% | 22.9% | 1.9% | 0.0 | 0.1 | 0.0 | 0.0 | 27.5 | 0.2 |
| QKTMKVTGVTTQGVK [synthetic wild type FVIII 15 mer peptide, region of ns-SNP M2238V] | 0.0% | 0.0% | 0.0% | 0.1% | 0.8% | 6.6% | 0.0 | 0.0 | 0.0 | 0.0 | 0.5 | 0.5 |
| RIHPQSWVHQIALRM [synthetic wild type FVIII 15 mer peptide] | 1.4% | 0.0% | 2.1% | 74.9% | 8.3% | 54.3% | 0.1 | 0.0 | 2.6 | 4.5 | 10.0 | 12.6 |
| RQNVEGSYDGAYAPV [synthetic wild type FVIII 15 mer peptide, region of ns-SNP D1241E] | 0.0% | 0.0% | 0.0% | 0.1% | 0.0% | 0.0% | 0.0 | 0.0 | 0.0 | 0.0 | 0.0 | 0.0 |
| RSNAWRPQVNNPKEW [synthetic wild type FVIII 15 mer peptide] | 0.0% | 0.0% | 0.0% | 0.1% | 0.4% | 18.2% | 0.0 | 0.0 | 0.0 | 0.0 | 0.5 | 12.4 |
| SDPRCLTRYYSSFVN [synthetic wild type FVIII 15 mer peptide] | 13.8% | 0.5% | 0.1% | 7.8% | 237.9% | 2.4% | 16.6 | 0.0 | 0.0 | 0.5 | 285.5 | 0.2 |
| SGYTFKHKMVYEDTL [synthetic wild type FVIII 15 mer peptide] | 0.0% | 1.3% | 0.0% | 14.9% | 1.0% | 1.0% | 0.0 | 0.0 | 0.0 | 2.2 | 1.2 | 0.1 |
